Laboratory results: patent US20150148311A1, “NON-SYSTEMIC TGR5 AGONISTS” (Ardelyx, Inc., priority 2011, published 2015)

Key:
[1] = Compound concentration in gall bladder, LC-MS/MS, 8 h post dose; assay type: in vivo; conditions: 30 mg/kg; for Number of Mice with Gallbladder Concentration < LLOQ: mice below LLOQ / mice in group; for concentration at 8 h: male, C57BL/6, mouse, with contents, mice, gallbladder homogenate, read-out: Mean Example Gallbladder Concentration
Description: (§1) Eight hours later, each mouse was heavily anesthetized with isoflurane, the peritoneal cavity was opened and the gallbladder, with its entire contents, was carefully excised and weighed. Blood was collected from the left ventricle of the heart and processed to plasma in EDTA-coated tubes containing aprotinin and DPPIV inhibitor for measurement of total GLP-1 (K150FCC; Meso Scales Discovery, Gaithersburg Md.).
Compound concentrations in the gall bladder were determined as follows: each mouse was heavily anesthetized with isoflurane, the peritoneal cavity was opened and the gallbladder, with its entire contents, was carefully excised. After harvest, gall bladders were homogenized in 100 μL water using a micro-homogenizer. Samples of homogenate were diluted 1:5 in water and precipitated with three volumes of neat acetonitrile. After centrifugation, supernatants were analyzed by LC-MS/MS. The level of test compound present in gall bladder samples was interpolated from a standard curve for each individual compound prepared in a matrix of gallbladder homogenate from vehicle treated animals.

[2] = Compound plasma concentration, LC-MS/MS, 8 h post dose; assay type: in vivo; conditions: 30 mg/kg; for Number of Mice with Plasma Concentration < LLOQ: mice below LLOQ / mice in group; for concentration at 8 h: male, C57BL/6, mouse, mice, plasma, read-out: Mean Example Plasma Concentration
Description: as §1
Plasma samples were treated with acetonitrile containing an internal standard, precipitated proteins removed by centrifugation. Supernatants were analyzed by LC-MS/MS and compound concentrations were determined by interpolated from a standard curve prepared in plasma.

human IBAT = target: T1, human IBAT (Homo sapiens, UniProt Q12908); assay: IBAT counter screen, [3H]taurocholic acid uptake in IBAT-transfected HEK293 cells; assay type: cell-based; conditions: for EC50: read-out: pEC50 human IBAT (converted)
T1 construct: expressed in transfected cells; host or cells: HEK293
T1 sequence (Q12908 1-348): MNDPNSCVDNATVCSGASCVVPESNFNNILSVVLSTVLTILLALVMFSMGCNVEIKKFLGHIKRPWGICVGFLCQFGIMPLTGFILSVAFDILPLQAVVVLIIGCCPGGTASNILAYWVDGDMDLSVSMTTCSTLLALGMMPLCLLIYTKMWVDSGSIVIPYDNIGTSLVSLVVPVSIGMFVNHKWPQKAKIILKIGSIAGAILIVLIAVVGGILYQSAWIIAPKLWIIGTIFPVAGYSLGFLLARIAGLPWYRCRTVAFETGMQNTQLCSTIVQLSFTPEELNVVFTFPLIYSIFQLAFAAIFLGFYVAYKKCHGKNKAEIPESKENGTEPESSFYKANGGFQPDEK
Description: Following a 40-min incubation, the solution was removed, and the cells were washed twice with uptake buffer. Cells were lysed by addition of 20 μL 0.1% Tween 80 followed by 100 μL scintillation fluid and counted using a TopCount (Perkin Elmer).

human TGR5 = target: T2, human TGR5 (Homo sapiens, UniProt Q8TDU6); assay: Cell-based TGR5 assay, HEK293 cells stably expressing human TGR5, cAMP by HTRF; conditions: pEC50 Human TGR5, HEK293 cells stably expressing human TGR5, 30 min at 37 C, 0.05 nM to 10 μM
T2 construct: expressed in transfected cells
T2 sequence (Q8TDU6 1-330): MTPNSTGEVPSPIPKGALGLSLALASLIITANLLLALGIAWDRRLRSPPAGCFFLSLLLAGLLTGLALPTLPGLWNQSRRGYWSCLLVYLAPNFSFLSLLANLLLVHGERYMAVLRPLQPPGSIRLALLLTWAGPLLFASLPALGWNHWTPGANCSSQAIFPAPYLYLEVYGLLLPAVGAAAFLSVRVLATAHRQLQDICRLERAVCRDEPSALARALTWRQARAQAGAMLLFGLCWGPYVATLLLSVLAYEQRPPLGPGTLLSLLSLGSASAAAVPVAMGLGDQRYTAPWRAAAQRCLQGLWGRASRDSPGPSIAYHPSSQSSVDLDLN
Outline: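 cAMP HTRF read-out, converted to concentration via standard curve, after a 30 min, 37 °C compound exposure in HBSS with 10 mM HEPES pH 7.4 and 0.5 mM IBMX, compounds serially diluted 3-fold from 10 mM DMSO stock then 100-fold. Cells: stable human TGR5 HEK293, or NCI-H716 expressing TGR5 endogenously.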

Compound | Number of Mice with Gallbladder Concentration < LLOQ [1] | Number of Mice with Plasma Concentration < LLOQ [2] | EC50 (human IBAT) | further results
O=C(CCc1cc(Cl)c(CN2CSC[C@H]2C(=O)N2CCN(C3CC3)c3ccccc32)cc1Cl)NC[C@H](O)[C@@H](O)C(O)[C@H](O)CO (stereo in doubt) [Example 97, 3-(2,5-dichloro-4-(((R)-4-(4-cyclopropyl-1,2,3,4-tetrahydroquinoxaline-1-carbonyl)thiazolidin-3-yl)methyl)phenyl)-N-((2S,3R,4R,5R)-2,3,4,5,6-pentahydroxyhexyl)propanamide] | 0/8 | 7/8 | – | concentration at 8 h [1]: 520 nM
O=C([C@@H]1C[C@H](F)CN1Cc1cc(Cl)ccc1Cl)N1CCN(C2CC2)c2ccccc21 [Example 3, (4-cyclopropyl-3,4-dihydroquinoxalin-1(2H)-yl)((2S,4S)-1-(2,5-dichlorobenzyl)-4-fluoropyrrolidin-2-yl)methanone] | – | – | > 25.1 µM | –
O=C([C@@H]1C[C@H](O)CN1Cc1cc(Cl)ccc1Cl)N1CCN(C2CC2)c2ccccc21 [Example 6, (4-cyclopropyl-3,4-dihydroquinoxalin-1(2H)-yl)((2S,4S)-1-(2,5-dichlorobenzyl)-4-hydroxypyrrolidin-2-yl)methanone] | – | – | > 25.1 µM | –
O=C([C@@H]1CCCN1Cc1cc(Cl)ccc1Cl)N1CCCc2ccccc21 [Example 10, (S)-(1-(2,5-dichlorobenzyl)pyrrolidin-2-yl)(3,4-dihydroquinolin-1(2H)-yl)methanone] | – | – | > 25.1 µM | –
O=C([C@@H]1CCCN1Cc1cc(Cl)ccc1Cl)N1CCN(C2CC2)c2ccccc21 [Example 12, (S)-(4-cyclopropyl-3,4-dihydroquinoxalin-1(2H)-yl)(1-(2,5-dichlorobenzyl)pyrrolidin-2-yl)methanone] | – | – | > 25.1 µM | –
O=C([C@H]1CCCN1Cc1cc(Cl)ccc1Cl)N1CCN(C2CC2)c2ccccc21 [Example 15, (R)-(4-cyclopropyl-3,4-dihydroquinoxalin-1(2H)-yl)(1-(2,5-dichlorobenzyl)pyrrolidin-2-yl)methanone] | – | – | > 25.1 µM | –
C[C@@]1(C(=O)N2CCN(C3CC3)c3ccccc32)CCCN1Cc1cc(Cl)ccc1Cl [Example 20, (S)-(4-cyclopropyl-3,4-dihydroquinoxaline-1(2H)-yl)(1-(2,5-dichlorobenzyl)-2-methylpyrrolidin-2-yl)methanone] | – | – | > 25.1 µM | –
O=C([C@@H]1COCCN1Cc1cc(Cl)ccc1Cl)N1CCN(C2CC2)c2ccccc21 [Example 23, (S)-(4-cyclopropyl-3,4-dihydroquinoxaline-1(2H)-yl)(4-(2,5-dichlorobenzyl)morpholin-3-yl)methanone] | – | – | > 25.1 µM | –
CN(C[C@H](O)[C@@H](O)[C@H](O)[C@H](O)CO)C(=O)CCc1cc(Cl)c(CN2CSC[C@H]2C(=O)N2CCN(C3CC3)c3ccccc32)cc1Cl [Example 237] | 1/8 | 7/8 | – | –
CN(C[C@H](O)[C@@H](O)[C@H](O)[C@H](O)CO)C(=O)CC[C@H](NC(=O)CCCCc1cc(Cl)c(CN2CSC[C@H]2C(=O)N2CCN(C3CC3)c3ccccc32)cc1Cl)C(=O)O [Example 278] | 0/8 | 5/8 | – | EC50 (human TGR5): 0.126 to 1 µM; concentration at 8 h [1]: 3100 nM; concentration at 8 h [2]: 2.3 ng/mL
O=C(NCCCCCc1cc(Cl)c(CN2CSC[C@H]2C(=O)N2CCN(C3CC3)c3ccccc32)cc1Cl)N1CCN(CP(=O)(O)O)CC1 [Example 282] | 0/7 | 0/8 | – | EC50 (human TGR5): < 0.1 µM; concentration at 8 h [1]: 80 nM; concentration at 8 h [2]: 2.8 ng/mL
O=C(NCCCCCc1cc(Cl)c(CN2CSC[C@H]2C(=O)N2CCN(C3CC3)c3ccccc32)cc1Cl)NCP(=O)(O)O [Example 283] | 0/8 | 7/8 | – | EC50 (human TGR5): 0.126 to 1 µM; concentration at 8 h [1]: 3060 nM; concentration at 8 h [2]: 24.8 ng/mL
O=C(NC[C@H](O)[C@@H](O)[C@H](O)[C@H](O)CO)c1ccc(OCc2cc(Cl)c(CN3CSC[C@H]3C(=O)N3CCN(C4CC4)c4ccccc43)cc2Cl)nc1 [Example 285] | 0/8 | 2/8 | – | –
C[C@H](CCC(=O)O)[C@H]1CC[C@H]2[C@@H]3[C@H](O)C[C@@H]4C[C@H](O)CC[C@]4(C)[C@H]3CC[C@]12C [chenodeoxycholic acid, reference compound] | – | – | – | inhibition of uptake of [3H]taurocholic acid (human IBAT; IBAT-transfected HEK293 cells, potency similar to that reported by Craddock): inhibited uptake

Further lines, with some results ahead:

Number of Mice with Gallbladder Concentration < LLOQ [1] | Number of Mice with Plasma Concentration < LLOQ [2] | EC50 (human IBAT) | Compound | further results
– | – | > 25.1 µM | O=C([C@@H]1C[C@@H](O)CN1Cc1cc(Cl)ccc1Cl)N1CCN(C2CC2)c2ccccc21 [Example 2, (4-cyclopropyl-3,4-dihydroquinoxalin-1(2H)-yl)((2S,4R)-1-(2,5-dichlorobenzyl)-4-hydroxypyrrolidin-2-yl)methanone] | –
– | – | > 25.1 µM | O=C([C@@H]1CCCCN1Cc1cc(Cl)ccc1Cl)N1CCN(C2CC2)c2ccccc21 [Example 14, (S)-(4-cyclopropyl-3,4-dihydroquinoxaline-1(2H)-yl)(1-(2,5-dichlorobenzyl)piperidin-2-yl) methanone] | –
– | – | > 25.1 µM | O=C([C@H]1CCCCN1Cc1cc(Cl)ccc1Cl)N1CCN(C2CC2)c2ccccc21 [Example 16, (R)-(4-cyclopropyl-3,4-dihydroquinoxaline-1(2H)-yl)(1-(2,5-dichlorobenzyl)piperidin-2-yl) methanone] | –
– | – | > 25.1 µM | O=C([C@@H]1CSCCN1Cc1cc(Cl)ccc1Cl)N1CCN(C2CC2)c2ccccc21 [Example 22, (R)-(4-cyclopropyl-3,4-dihydroquinoxaline-1(2H)-yl)(4-(2,5-dichlorobenzyl)thiomorpholin-3-yl)methanone] | –
0/8 | 4/8 | – | CN(C[C@H](O)[C@@H](O)[C@@H](O)[C@H](O)CO)C(=O)CCc1cc(Cl)c(CN2CSC[C@H]2C(=O)N2CCN(C3CC3)c3ccccc32)cc1Cl [Example 98, 3-(2,5-dichloro-4-(((R)-4-(4-cyclopropyl-1,2,3,4-tetrahydroquinoxaline-1-carbonyl)thiazolidin-3-yl)methyl)phenyl)-N-methyl-N-((2S,3R,4S,5R)-2,3,4,5,6-pentahydroxyhexyl)propanamide] | –
0/7 | 7/7 | – | CN(C[C@@H](O)[C@H](O)[C@@H](O)[C@@H](O)CO)C(=O)NCCCCc1cc(Cl)c(CN2CSC[C@H]2C(=O)N2CCN(C3CC3)c3ccccc32)cc1Cl [Example 208] | concentration at 8 h [2]: < 0.5 ng/mL
0/7 | 7/8 | – | C[C@@H](NC(=O)[C@@H](C)NC(=O)[C@@H](C)NC(=O)CCCCc1cc(Cl)c(CN2CSC[C@H]2C(=O)N2CCN(C3CC3)c3ccccc32)cc1Cl)C(=O)O [Example 227] | EC50 (human TGR5): < 0.1 µM; concentration at 8 h [1]: 1730 nM; concentration at 8 h [2]: 0.6 ng/mL
8/8 | 6/8 | – | CN(C[C@H](O)[C@@H](O)[C@@H](O)[C@H](O)CO)C(=O)CCCCc1cc(Cl)c(CN2CSC[C@H]2C(=O)N2CCN(C3CC3)c3ccccc32)cc1Cl [Example 239] | concentration at 8 h [1]: < 3 nM; concentration at 8 h [2]: 2 ng/mL
